Experimental data from ChEMBL document CHEMBL1795221, “In vitro and in vivo anticancer activity evaluation of ursolic acid derivatives” (Eur J Med Chem, 2011).

System: HeLa
Test: cells
Conditions: Homo sapiens, 24 h
Description: Cytotoxicity against human HeLa cells after 24 hrs by MTT assay

SMILES	IC50
C[C@H]1[C@H](C)CC[C@]2(C(=O)OCCCO[N+](=O)[O-])CC[C@]3(C)C(=CC[C@@H]4[C@@]5(C)CC[C@H](O)C(C)(C)[C@@H]5CC[C@]43C)[C@H]12	69.4 µM
C[C@H]1[C@H](C)CC[C@]2(C(=O)OCCCCO[N+](=O)[O-])CC[C@]3(C)C(=CC[C@@H]4[C@@]5(C)CC[C@H](O)C(C)(C)[C@@H]5CC[C@]43C)[C@H]12	> 100 µM
C[C@H]1[C@H](C)CC[C@]2(C(=O)N3CCN(CCO)CC3)CC[C@]3(C)C(=CC[C@@H]4[C@@]5(C)CC[C@H](O)C(C)(C)[C@@H]5CC[C@]43C)[C@H]12	52.3 µM
CCCCOC(=O)[C@]12CC[C@@H](C)[C@H](C)[C@H]1C1=CC[C@@H]3[C@@]4(C)CC[C@H](OC(C)=O)C(C)(C)[C@@H]4CC[C@@]3(C)[C@]1(C)CC2	> 100 µM

Stronger by IC50, values ahead:

IC50	SMILES
48 µM	CCCOC(=O)[C@]12CC[C@@H](C)[C@H](C)[C@H]1C1=CC[C@@H]3[C@@]4(C)CC[C@H](O)C(C)(C)[C@@H]4CC[C@@]3(C)[C@]1(C)CC2
29.2 µM	CCOC(=O)[C@]12CC[C@@H](C)[C@H](C)[C@H]1C1=CC[C@@H]3[C@@]4(C)CC[C@H](O)C(C)(C)[C@@H]4CC[C@@]3(C)[C@]1(C)CC2
16.3 µM	CC(=O)O[C@H]1CC[C@]2(C)[C@H]3CC=C4[C@@H]5[C@@H](C)[C@H](C)CC[C@]5(C(=O)NCCO)CC[C@@]4(C)[C@]3(C)CC[C@H]2C1(C)C

System: BGC-823
Test: Cytotoxicity against human BGC823 cells after 24 hrs by MTT assay
Assay type: functional, cell-based
Conditions: BGC-823, 24 h

SMILES	IC50
CCOC(=O)[C@]12CC[C@@H](C)[C@H](C)[C@H]1C1=CC[C@@H]3[C@@]4(C)CC[C@H](O)C(C)(C)[C@@H]4CC[C@@]3(C)[C@]1(C)CC2	69.3 µM
C[C@H]1[C@H](C)CC[C@]2(C(=O)OCCCO[N+](=O)[O-])CC[C@]3(C)C(=CC[C@@H]4[C@@]5(C)CC[C@H](O)C(C)(C)[C@@H]5CC[C@]43C)[C@H]12	98.3 µM
C[C@H]1[C@H](C)CC[C@]2(C(=O)OCCCCO[N+](=O)[O-])CC[C@]3(C)C(=CC[C@@H]4[C@@]5(C)CC[C@H](O)C(C)(C)[C@@H]5CC[C@]43C)[C@H]12	> 100 µM
C[C@H]1[C@H](C)CC[C@]2(C(=O)N3CCN(CCO)CC3)CC[C@]3(C)C(=CC[C@@H]4[C@@]5(C)CC[C@H](O)C(C)(C)[C@@H]5CC[C@]43C)[C@H]12	98.3 µM
CCCCOC(=O)[C@]12CC[C@@H](C)[C@H](C)[C@H]1C1=CC[C@@H]3[C@@]4(C)CC[C@H](OC(C)=O)C(C)(C)[C@@H]4CC[C@@]3(C)[C@]1(C)CC2	> 100 µM
CCCOC(=O)[C@]12CC[C@@H](C)[C@H](C)[C@H]1C1=CC[C@@H]3[C@@]4(C)CC[C@H](O)C(C)(C)[C@@H]4CC[C@@]3(C)[C@]1(C)CC2	79.7 µM
CC(=O)O[C@H]1CC[C@]2(C)[C@H]3CC=C4[C@@H]5[C@@H](C)[C@H](C)CC[C@]5(C(=O)NCCO)CC[C@@]4(C)[C@]3(C)CC[C@H]2C1(C)C	48.5 µM

System: not listed separately
Test: Cytotoxicity against human HELF cells after 24 hrs by MTT assay
Assay type: cell-based
Conditions: not given

SMILES	IC50
CCOC(=O)[C@]12CC[C@@H](C)[C@H](C)[C@H]1C1=CC[C@@H]3[C@@]4(C)CC[C@H](O)C(C)(C)[C@@H]4CC[C@@]3(C)[C@]1(C)CC2	81.9 µM
C[C@H]1[C@H](C)CC[C@]2(C(=O)OCCCO[N+](=O)[O-])CC[C@]3(C)C(=CC[C@@H]4[C@@]5(C)CC[C@H](O)C(C)(C)[C@@H]5CC[C@]43C)[C@H]12	82.6 µM
C[C@H]1[C@H](C)CC[C@]2(C(=O)OCCCCO[N+](=O)[O-])CC[C@]3(C)C(=CC[C@@H]4[C@@]5(C)CC[C@H](O)C(C)(C)[C@@H]5CC[C@]43C)[C@H]12	> 100 µM
C[C@H]1[C@H](C)CC[C@]2(C(=O)N3CCN(CCO)CC3)CC[C@]3(C)C(=CC[C@@H]4[C@@]5(C)CC[C@H](O)C(C)(C)[C@@H]5CC[C@]43C)[C@H]12	32.8 µM
CCCCOC(=O)[C@]12CC[C@@H](C)[C@H](C)[C@H]1C1=CC[C@@H]3[C@@]4(C)CC[C@H](OC(C)=O)C(C)(C)[C@@H]4CC[C@@]3(C)[C@]1(C)CC2	> 100 µM
CCCOC(=O)[C@]12CC[C@@H](C)[C@H](C)[C@H]1C1=CC[C@@H]3[C@@]4(C)CC[C@H](O)C(C)(C)[C@@H]4CC[C@@]3(C)[C@]1(C)CC2	> 100 µM
CC(=O)O[C@H]1CC[C@]2(C)[C@H]3CC=C4[C@@H]5[C@@H](C)[C@H](C)CC[C@]5(C(=O)NCCO)CC[C@@]4(C)[C@]3(C)CC[C@H]2C1(C)C	27.8 µM

System: SH-SY5Y
Test: Cytotoxicity against human SH-SY5Y cells after 24 hrs by MTT assay
Assay type: functional, cell-based
Conditions: not given

SMILES	IC50
CCOC(=O)[C@]12CC[C@@H](C)[C@H](C)[C@H]1C1=CC[C@@H]3[C@@]4(C)CC[C@H](O)C(C)(C)[C@@H]4CC[C@@]3(C)[C@]1(C)CC2	66.3 µM
C[C@H]1[C@H](C)CC[C@]2(C(=O)OCCCO[N+](=O)[O-])CC[C@]3(C)C(=CC[C@@H]4[C@@]5(C)CC[C@H](O)C(C)(C)[C@@H]5CC[C@]43C)[C@H]12	89.6 µM
C[C@H]1[C@H](C)CC[C@]2(C(=O)OCCCCO[N+](=O)[O-])CC[C@]3(C)C(=CC[C@@H]4[C@@]5(C)CC[C@H](O)C(C)(C)[C@@H]5CC[C@]43C)[C@H]12	> 100 µM
C[C@H]1[C@H](C)CC[C@]2(C(=O)N3CCN(CCO)CC3)CC[C@]3(C)C(=CC[C@@H]4[C@@]5(C)CC[C@H](O)C(C)(C)[C@@H]5CC[C@]43C)[C@H]12	> 100 µM
CCCCOC(=O)[C@]12CC[C@@H](C)[C@H](C)[C@H]1C1=CC[C@@H]3[C@@]4(C)CC[C@H](OC(C)=O)C(C)(C)[C@@H]4CC[C@@]3(C)[C@]1(C)CC2	> 100 µM
CCCOC(=O)[C@]12CC[C@@H](C)[C@H](C)[C@H]1C1=CC[C@@H]3[C@@]4(C)CC[C@H](O)C(C)(C)[C@@H]4CC[C@@]3(C)[C@]1(C)CC2	92.5 µM
CC(=O)O[C@H]1CC[C@]2(C)[C@H]3CC=C4[C@@H]5[C@@H](C)[C@H](C)CC[C@]5(C(=O)NCCO)CC[C@@]4(C)[C@]3(C)CC[C@H]2C1(C)C	49.4 µM

System: HepG2
Test: cells
Conditions: Homo sapiens, HepG2, 24 h
Description: Cytotoxicity against human HepG2 cells after 24 hrs by MTT assay

SMILES	IC50
C[C@H]1[C@H](C)CC[C@]2(C(=O)OCCCO[N+](=O)[O-])CC[C@]3(C)C(=CC[C@@H]4[C@@]5(C)CC[C@H](O)C(C)(C)[C@@H]5CC[C@]43C)[C@H]12	87.4 µM
C[C@H]1[C@H](C)CC[C@]2(C(=O)OCCCCO[N+](=O)[O-])CC[C@]3(C)C(=CC[C@@H]4[C@@]5(C)CC[C@H](O)C(C)(C)[C@@H]5CC[C@]43C)[C@H]12	> 100 µM
C[C@H]1[C@H](C)CC[C@]2(C(=O)N3CCN(CCO)CC3)CC[C@]3(C)C(=CC[C@@H]4[C@@]5(C)CC[C@H](O)C(C)(C)[C@@H]5CC[C@]43C)[C@H]12	> 100 µM
CCCCOC(=O)[C@]12CC[C@@H](C)[C@H](C)[C@H]1C1=CC[C@@H]3[C@@]4(C)CC[C@H](OC(C)=O)C(C)(C)[C@@H]4CC[C@@]3(C)[C@]1(C)CC2	> 100 µM

Next, values leading:

IC50	SMILES
89.1 µM	CCCOC(=O)[C@]12CC[C@@H](C)[C@H](C)[C@H]1C1=CC[C@@H]3[C@@]4(C)CC[C@H](O)C(C)(C)[C@@H]4CC[C@@]3(C)[C@]1(C)CC2
70.8 µM	CCOC(=O)[C@]12CC[C@@H](C)[C@H](C)[C@H]1C1=CC[C@@H]3[C@@]4(C)CC[C@H](O)C(C)(C)[C@@H]4CC[C@@]3(C)[C@]1(C)CC2
46.6 µM	CC(=O)O[C@H]1CC[C@]2(C)[C@H]3CC=C4[C@@H]5[C@@H](C)[C@H](C)CC[C@]5(C(=O)NCCO)CC[C@@]4(C)[C@]3(C)CC[C@H]2C1(C)C
